IC50 data for 49 molecules are collected here from patent US11214565B2, “Compound, compositions, and methods” (Denali Therapeutics Inc., priority 2015, dated 2022).

By IC50 is commonly meant the concentration needed to halve the response being measured. Read a high IC50 as weaker potency.

Each structure is given as a SMILES string.

For the first assay, the target named is LRRK2 G2019S enzyme (Homo sapiens (Human), UniProt Q5S007, G2019S). Briefly: LRRK2 G2019S TR-FRET biochemical kinase assay (LRRKtide substrate). To be noted: Table C-2; 5 nM LRRK2, 134 μM ATP, 60 minute reaction, 23° C. The gist of the method: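 TR-FRET phospho-LRRKtide readout (2 nM antibody, 10 mM EDTA, 60 min) after a 60 min, 23 °C kinase reaction. The reaction used 134 μM ATP and 5 nM enzyme in pH 7.5 Tris/MgCl2/EGTA/DTT buffer, with compound and enzyme-substrate mix preincubated for 20 min beforehand.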
LRRK2 G2019S enzyme, sequence (Q5S007 whole entry G2019S): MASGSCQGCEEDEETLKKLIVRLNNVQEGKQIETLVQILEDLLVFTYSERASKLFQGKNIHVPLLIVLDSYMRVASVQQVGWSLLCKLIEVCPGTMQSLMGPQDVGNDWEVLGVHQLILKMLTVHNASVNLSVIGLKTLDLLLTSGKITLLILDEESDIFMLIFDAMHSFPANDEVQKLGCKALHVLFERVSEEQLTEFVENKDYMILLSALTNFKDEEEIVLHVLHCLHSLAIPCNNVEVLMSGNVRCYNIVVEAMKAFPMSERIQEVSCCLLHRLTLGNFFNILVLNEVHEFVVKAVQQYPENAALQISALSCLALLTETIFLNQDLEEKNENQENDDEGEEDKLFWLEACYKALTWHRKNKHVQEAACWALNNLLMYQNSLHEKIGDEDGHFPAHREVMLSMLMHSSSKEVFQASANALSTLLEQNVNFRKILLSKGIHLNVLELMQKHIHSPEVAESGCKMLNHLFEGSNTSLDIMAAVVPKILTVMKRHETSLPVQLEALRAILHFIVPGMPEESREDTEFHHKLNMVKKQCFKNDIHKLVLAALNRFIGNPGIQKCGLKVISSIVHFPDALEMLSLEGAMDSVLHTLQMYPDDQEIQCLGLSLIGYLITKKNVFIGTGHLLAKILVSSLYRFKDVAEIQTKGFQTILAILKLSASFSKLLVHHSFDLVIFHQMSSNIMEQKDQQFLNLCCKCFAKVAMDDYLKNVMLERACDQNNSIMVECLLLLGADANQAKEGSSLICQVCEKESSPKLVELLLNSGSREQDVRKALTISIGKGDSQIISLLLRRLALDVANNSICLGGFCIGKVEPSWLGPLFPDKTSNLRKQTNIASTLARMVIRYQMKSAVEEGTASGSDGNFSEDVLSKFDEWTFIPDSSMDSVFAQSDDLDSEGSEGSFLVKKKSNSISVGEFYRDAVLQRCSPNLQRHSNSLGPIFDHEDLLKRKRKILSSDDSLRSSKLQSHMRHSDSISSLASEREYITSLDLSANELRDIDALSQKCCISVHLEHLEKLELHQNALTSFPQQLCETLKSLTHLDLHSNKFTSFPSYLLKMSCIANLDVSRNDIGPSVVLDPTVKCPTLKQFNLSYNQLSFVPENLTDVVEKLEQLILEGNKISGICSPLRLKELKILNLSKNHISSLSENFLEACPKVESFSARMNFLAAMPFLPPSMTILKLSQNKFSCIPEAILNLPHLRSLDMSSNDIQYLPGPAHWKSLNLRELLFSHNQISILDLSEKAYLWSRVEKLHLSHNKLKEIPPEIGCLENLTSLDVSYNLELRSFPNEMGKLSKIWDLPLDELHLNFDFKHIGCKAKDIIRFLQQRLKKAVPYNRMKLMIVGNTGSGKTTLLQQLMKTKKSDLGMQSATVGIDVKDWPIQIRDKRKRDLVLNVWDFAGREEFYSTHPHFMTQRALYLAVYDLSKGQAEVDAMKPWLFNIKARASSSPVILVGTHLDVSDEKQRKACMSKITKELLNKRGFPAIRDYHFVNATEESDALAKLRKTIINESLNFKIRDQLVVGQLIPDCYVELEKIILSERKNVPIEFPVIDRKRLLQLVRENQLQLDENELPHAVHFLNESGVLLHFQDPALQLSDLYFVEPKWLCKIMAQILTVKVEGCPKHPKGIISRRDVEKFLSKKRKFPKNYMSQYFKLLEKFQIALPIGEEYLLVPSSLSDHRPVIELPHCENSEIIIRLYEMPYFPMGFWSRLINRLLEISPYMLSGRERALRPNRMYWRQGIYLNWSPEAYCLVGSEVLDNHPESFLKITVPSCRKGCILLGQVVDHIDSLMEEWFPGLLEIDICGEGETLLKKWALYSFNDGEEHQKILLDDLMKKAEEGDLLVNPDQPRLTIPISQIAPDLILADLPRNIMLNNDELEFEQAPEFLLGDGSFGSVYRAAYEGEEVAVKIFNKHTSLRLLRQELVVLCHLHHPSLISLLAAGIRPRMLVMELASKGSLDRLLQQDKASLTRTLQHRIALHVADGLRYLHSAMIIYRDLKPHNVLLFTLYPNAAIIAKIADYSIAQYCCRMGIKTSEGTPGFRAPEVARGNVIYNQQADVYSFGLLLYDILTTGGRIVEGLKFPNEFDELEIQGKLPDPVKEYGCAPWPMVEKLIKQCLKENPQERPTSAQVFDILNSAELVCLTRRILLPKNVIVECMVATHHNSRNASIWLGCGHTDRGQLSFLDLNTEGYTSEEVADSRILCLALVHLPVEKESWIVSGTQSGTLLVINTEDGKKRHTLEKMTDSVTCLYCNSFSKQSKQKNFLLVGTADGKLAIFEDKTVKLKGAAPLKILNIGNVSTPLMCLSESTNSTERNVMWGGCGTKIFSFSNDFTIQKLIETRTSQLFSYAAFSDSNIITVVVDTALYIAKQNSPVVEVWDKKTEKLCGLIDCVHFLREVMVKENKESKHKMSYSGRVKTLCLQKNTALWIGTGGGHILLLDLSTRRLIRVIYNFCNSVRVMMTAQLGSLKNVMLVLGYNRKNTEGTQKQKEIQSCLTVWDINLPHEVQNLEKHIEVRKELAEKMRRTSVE
`Cc1nn(C(C)(C)c2ncn(C)n2)cc1Nc1nc(C2CC2)c2cc[nH]c2n1` [Compound C-27] displayed an IC50 of less than 50 nM.

With `Cc1nn(C(C)(C)c2ncn(C)n2)cc1Nc1nc(C2CC2)c2c(Cl)c[nH]c2n1` [Compound C-28], the IC50 is less than 50 nM. Same read-out and setting: in the case of `Cc1nn(C(C)(C)c2ncn(C)n2)cc1Nc1nc(C2CC2)c2c(F)c[nH]c2n1` [Compound C-29] it was less than 50 nM; in that of `Cc1nn(C(CF)CF)cc1Nc1nc(C2CC2)c2cc[nH]c2n1` [Compound C-30], less than 50 nM; in that of `Cc1c(Nc2nc(C3CC3)c3cc[nH]c3n2)cnn1C(CF)CF` [Compound C-31], less than 50 nM. The molecule `Cc1c(Nc2nc(C3CC3)c3c(Cl)c[nH]c3n2)cnn1C(CF)CF` [Compound C-32] yielded a concentration for half-maximal inhibition (IC50) of less than 50 nM. Regarding `Cc1nc2c(C3CC3)nc(Nc3cnn(C)c3C)nc2[nH]1` [Compound C-33], the IC50 is greater than 100 nM. In turn, `Cc1nc2c(C3CC3)nc(Nc3cn(C)nc3C)nc2[nH]1` [Compound C-34] showed an IC50 greater than 100 nM. Same read-out and setting: to `Cc1cn(C)nc1Nc1cc(C2CC2)c2nc[nH]c2n1` [Compound C-35] belongs greater than 100 nM; to `Cc1nn(C2(C)CC2)cc1Nc1nc(C2CC2)c2nc[nH]c2n1` [Compound C-36], less than 50 nM. Same read-out and setting: in the case of `Cc1nn(C(C)(C)c2ccn(C)n2)cc1Nc1nc(C2CC2)c2nc[nH]c2n1` [Compound C-37] it was less than 50 nM. `Clc1c(Nc2nc(C3CC3)c3nc[nH]c3n2)cnn1CC1CC1` [Compound C-38] returned an IC50 of less than 50 nM. In turn, `Cc1c(Nc2nc(C3CC3)c3c(C#N)c[nH]c3n2)cnn1C(F)F` [Compound C-39] came in with an IC50 of less than 50 nM. Still for that read-out and setting: in the case of `Cc1nn(C(F)F)cc1Nc1nc(C2CC2)c2c(C#N)c[nH]c2n1` [Compound C-40] it was less than 50 nM; in that of `Cc1nn(C(C)(C)C#N)cc1Nc1nc(C2CC2)c2c(C3CC3)c[nH]c2n1` [Compound C-41], less than 50 nM. Same read-out and setting: in the case of `Cc1nn(C(C)(C)C#N)cc1Nc1nc(C2CC2)c2c(C(F)(F)F)c[nH]c2n1` [Compound C-42] it was less than 50 nM; in that of `Cc1c(Nc2nc(C3CC3)c3c(C#N)c[nH]c3n2)cnn1C1CC2CC2C1` (stereo not shown) [Compound C-43], less than 50 nM; in that of `Cc1nn(C2CC3CC3C2)cc1Nc1nc(C2CC2)c2c(C#N)c[nH]c2n1` (stereo not shown) [Compound C-44], less than 50 nM. Still for that read-out and setting: to `Cc1c(Nc2nc(C3CC3)c3nc[nH]c3n2)cnn1C1CC2CC2C1` (stereo not shown) [Compound C-45] belongs less than 50 nM; to `Cc1nn(C2CC3CC3C2)cc1Nc1nc(C2CC2)c2nc[nH]c2n1` (stereo not shown) [Compound C-46], less than 50 nM.

On to `Cc1c(Nc2nc(C3CC3)c3c(C#N)c[nH]c3n2)cnn1CCOC(F)F` [Compound C-47], for which the IC50 was less than 50 nM. On the same count and under the same terms, in the case of `Cc1c(Nc2nc(C3CC3)c3nc[nH]c3n2)cnn1CCOC(F)F` [Compound C-48] it was less than 50 nM; in that of `Cc1c(Nc2nc(C3CC3)c3nc[nH]c3n2)cnn1C1CC1` [Compound C-49], less than 50 nM. Molecule `Cc1nn(C2CC2)cc1Nc1nc(C2CC2)c2nc[nH]c2n1` [Compound C-50] gave an IC50 of less than 50 nM. Still for that read-out and setting: in the case of `Cc1nn(CC2CC2)cc1Nc1nc(C2CC2)c2nc[nH]c2n1` [Compound C-52] it was less than 50 nM. With `Cc1c(Nc2cc(C3CC3)c3c(C#N)c[nH]c3n2)cnn1C1CC1` [Compound C-53], the IC50 is less than 50 nM. On the same count and under the same terms, to `Cc1nn(C2CC2)cc1Nc1cc(C2CC2)c2c(C#N)c[nH]c2n1` [Compound C-54] belongs less than 50 nM; to `Cc1nn(C(CF)CF)cc1Nc1nc(C2CC2)c2c(Cl)c[nH]c2n1` [Compound C-55], less than 50 nM.

Staying with this assay, now noted: Table D-4; 5 nM LRRK2, 134 μM ATP, 60 minute reaction, 23° C.
Take `CNc1nc(Nc2cn(CC3(CC#N)CC3)nc2C)ncc1C(F)(F)F` [Compound D-1, 2-(1-((3-methyl-4-((4-(methylamino)-5-(trifluoromethyl)pyrimidin-2-yl)amino)-1H-pyrazol-1-yl)methyl)cyclopropyl)acetonitrile]: the IC50 is greater than 60 nM. Regarding `CNc1nc(Nc2cnn(C3CCn4ccnc43)c2C)ncc1C(F)(F)F` [Compound D-2, N2-[1-(6,7-dihydro-5H-pyrrolo[1,2-a]imidazol-7-yl)-5-methyl-pyrazol-4-yl]-N4-methyl-5-(trifluoromethyl)pyrimidine-2,4-diamine], the half-inhibitory concentration (IC50) is less than 30 nM. Still for that read-out and setting: in the case of `CNc1nc(Nc2cn(CC3(Cn4cncn4)CC3)nc2C)ncc1C(F)(F)F` [Compound D-5, N2-(1-((1-((1H-1,2,4-triazol-1-yl)methyl)cyclopropyl)methyl)-3-methyl-1H-pyrazol-4-yl)-N4-methyl-5-(trifluoromethyl)pyrimidine-2,4-diamine] it was greater than 60 nM; in that of `CNc1nc(Nc2cnn(CC3(Cn4cncn4)CC3)c2C)ncc1C(F)(F)F` [Compound D-6, N2-(1-((1-((1H-1,2,4-triazol-1-yl)methyl)cyclopropyl)methyl)-5-methyl-1H-pyrazol-4-yl)-N4-methyl-5-(trifluoromethyl)pyrimidine-2,4-diamine], less than 30 nM; in that of `CNc1nc(Nc2cnn(C3CCc4nnc(C)n4C3)c2C)ncc1C(F)(F)F` [Compound D-7, N4-methyl-N2-[5-methyl-1-(3-methyl-5,6,7,8-tetrahydro-[1,2,4]triazolo[4,3-a]pyridin-6-yl)pyrazol-4-yl]-5-(trifluoromethyl)pyrimidine-2,4-diamine], less than 30 nM. Molecule `CNc1nc(Nc2cn(C3CCc4nnc(C)n4C3)nc2C)ncc1C(F)(F)F` [Compound D-8, N4-methyl-N2-[3-methyl-1-(3-methyl-5,6,7,8-tetrahydro-[1,2,4]triazolo[4,3-a]pyridin-6-yl)pyrazol-4-yl]-5-(trifluoromethyl)pyrimidine-2,4-diamine] returned an IC50 greater than 60 nM. In turn, `CNc1nc(Nc2cnn(CCOC(F)F)c2C)ncc1C(F)(F)F` [Compound D-9, N2-[1-[2-(difluoromethoxy)ethyl]-5-methyl-pyrazol-4-yl]-N4-methyl-5-(trifluoromethyl)pyrimidine-2,4-diamine] displayed an IC50 of less than 30 nM. The molecule `CNc1nc(Nc2cn(CCOC(F)F)nc2C)ncc1C(F)(F)F` [Compound D-10, N2-[1-[2-(difluoromethoxy)ethyl]-3-methyl-pyrazol-4-yl]-N4-methyl-5-(trifluoromethyl)pyrimidine-2,4-diamine] showed an IC50 of 30 to 60 nM. As to `CNc1nc(Nc2cnn(CCOC(F)F)c2Cl)ncc1C(F)(F)F` [Compound D-11, N2-[5-chloro-1-[2-(difluoromethoxy)ethyl]pyrazol-4-yl]-N4-methyl-5-(trifluoromethyl)pyrimidine-2,4-diamine], the IC50 is less than 30 nM. As for `CNc1nc(Nc2cnn(CC3(COC)CC3)c2Cl)ncc1C(F)(F)F` [Compound D-12, N2-[5-chloro-1-[[1-(methoxymethyl)cyclopropyl]methyl]pyrazol-4-yl]-N4-methyl-5-(trifluoromethyl)pyrimidine-2,4-diamine], the IC50 is less than 30 nM. In the case of `CNc1nc(Nc2cn(C(F)(F)C#N)nc2C)ncc1C(F)(F)F` [Compound D-13, 2,2-difluoro-2-[3-methyl-4-[[4-(methylamino)-5-(trifluoromethyl)pyrimidin-2-yl]amino]pyrazol-1-yl]acetonitrile], the IC50 is less than 30 nM. The same measure, in the same setting: in the case of `CNc1nc(Nc2cn(C(F)(F)C(N)=O)nc2C)ncc1C(F)(F)F` [Compound D-14, 2,2-difluoro-2-[3-methyl-4-[[4-(methylamino)-5-(trifluoromethyl)pyrimidin-2-yl]amino]pyrazol-1-yl]acetamide] it was less than 30 nM. As for `CCNc1nc(Nc2cnn(CCOC(F)F)c2C)ncc1C(F)(F)F` [Compound D-15, N2-[1-[2-(difluoromethoxy)ethyl]-5-methyl-pyrazol-4-yl]-N4-ethyl-5-(trifluoromethyl)pyrimidine-2,4-diamine], the IC50 is less than 30 nM. The same measure, in the same setting: to `CCNc1nc(Nc2cn(CCOC(F)F)nc2C)ncc1C(F)(F)F` [Compound D-16, N2-[1-[2-(difluoromethoxy)ethyl]-3-methyl-pyrazol-4-yl]-N4-ethyl-5-(trifluoromethyl)pyrimidine-2,4-diamine] belongs less than 30 nM; to `CNc1nc(Nc2cnn(CC(C)OC(F)F)c2C)ncc1C(F)(F)F` [Compound D-17], less than 30 nM. On the same count and under the same terms, to `CNc1nc(Nc2cn(CC(C)OC(F)F)nc2C)ncc1C(F)(F)F` [Compound D-18] belongs greater than 60 nM; to `CNc1nc(Nc2cnn(C[C@@H](C)OC(F)F)c2C)ncc1C(F)(F)F` [Compound D-19, N2-[1-[(2R)-2-(difluoromethoxy)propyl]-5-methyl-pyrazol-4-yl]-N4-methyl-5-(trifluoromethyl)pyrimidine-2,4-diamine], less than 30 nM; to `CNc1nc(Nc2cn(C[C@@H](C)OC(F)F)nc2C)ncc1C(F)(F)F` [Compound D-20, N2-[1-[(2R)-2-(difluoromethoxy)propyl]-3-methyl-pyrazol-4-yl]-N4-methyl-5-(trifluoromethyl)pyrimidine-2,4-diamine], greater than 60 nM. Still for that read-out and setting: to `CNc1nc(Nc2cn(C(C)COC(F)F)nc2C)ncc1C(F)(F)F` [Compound D-21, N2-[1-[2-(difluoromethoxy)-1-methyl-ethyl]-3-methyl-pyrazol-4-yl]-N4-methyl-5-(trifluoromethyl)pyrimidine-2,4-diamine] belongs 30 to 60 nM; to `CNc1nc(Nc2cnn([C@H]3C[C@H](OC(F)F)C3)c2C)ncc1C(F)(F)F` [Compound D-25, trans-N2-[1-[3-(difluoromethoxy)cyclobutyl]-5-methyl-pyrazol-4-yl]-N4-methyl-5-(trifluoromethyl)pyrimidine-2,4-diamine], less than 30 nM; to `CNc1nc(Nc2cn([C@H]3C[C@H](OC(F)F)C3)nc2C)ncc1C(F)(F)F` [Compound D-26, trans-N2-[1-[3-(difluoromethoxy)cyclobutyl]-3-methyl-pyrazol-4-yl]-N4-methyl-5-(trifluoromethyl)pyrimidine-2,4-diamine], less than 30 nM.
